{
  "source": "patent US20240148744A1",
  "about": "(Celgene Corporation, priority 2021, published 2024)",
  "key": {"[1]": {"system": "Adult and microfilariae B. malayi", "assay": "In vitro parasite motility assay, B. malayi adult worms and microfilariae", "format": "cell-based", "conditions": "Brugia malayi, read-out: B. malayi Activity class"}, "[2]": {"system": "Adult and microfilariae B. pahangi", "assay": "In vitro parasite motility assay, B. pahangi adult worms and microfilariae", "format": "cell-based, Brugia pahangi"}, "Dirofilaria immitis": {"system": "Dirofilaria immitis", "assay": "Heartworm screen Dirofilaria immitis (stage DiMF/DiL4 not specified in the tables)", "format": "cell-based", "conditions": "read-out: D. immitis Activity class"}, "[3]": {"system": "Onchocerca gutturosa adult male worms", "assay": "Onchocerca gutturosa in vitro screening model: adult worm motility score and MTT/formazan viability", "format": "cell-based", "conditions": "read-out: O. gutt Activity class"}},
  "data": [
    {"smiles": "O=S(=O)(Nc1cccc2cccnc12)c1cn[nH]c1", "note": "[Compound 267, N-(quinolin-8-yl)-1H-pyrazol-4-sulfonamide]", "values": [
      {"measurement": "IC50", "setting": "[1]", "result": "500 to 5000", "unit": "nM"}
    ]},
    {"smiles": "Cn1cc(S(=O)(=O)Nc2cccc3cccnc23)cn1", "note": "[Compound 268, 1-methyl-N-(quinolin-8-yl)-1H-pyrazole-4-sulfonamide]", "values": [
      {"measurement": "B. phange Activity class", "setting": "[2]; activity against microfilaria (level D)", "result": "D (activity against microfilaria at compound concentrations below 1 μM (activity level D))"},
      {"measurement": "IC50", "setting": "[1]", "result": "500 to 5000", "unit": "nM"}
    ]},
    {"smiles": "O=S(=O)(Nc1cccc2cccnc12)c1ncccc1F", "note": "[Compound 269, 3-fluoro-N-(quinolin-8-yl)pyridine-2-sulfonamide]", "values": [
      {"measurement": "B. phange Activity class", "setting": "[2]; activity against adult filaria (level E)", "result": "E (activity against adult filaria at compound concentrations below 1 μM (activity level E))"},
      {"measurement": "IC50", "setting": "Dirofilaria immitis", "result": "500 to 5000", "unit": "nM"},
      {"measurement": "IC50", "setting": "[3]", "result": "< 200", "unit": "nM"}
    ]},
    {"smiles": "O=S(=O)(Nc1cccc2cccnc12)c1ccccn1", "note": "[Compound 280, N-(quinolin-8-yl)pyridine-2-sulfonamide]", "values": [
      {"measurement": "IC50", "setting": "Dirofilaria immitis", "result": "200 to 500", "unit": "nM"},
      {"measurement": "IC50", "setting": "[3]", "result": "500 to 5000", "unit": "nM"}
    ]}
  ]
}
